Experimental data from ChEMBL document CHEMBL4177679, “The identification of a novel lead class for phosphodiesterase 2 inhibition by fragment-based drug design” (Bioorg Med Chem Lett, 2017).
≈ marks a conversion by molar mass, not a printed value.

Legend:
[1] = Solubility of the compound at pH 6.5; format: physicochemical; conditions: buffer
[2] = Oral bioavailability in rat; format: ADME, organism-based; conditions: in vivo
[3] = Half-life in po dosed rat; format: ADME, organism-based; conditions: in vivo
Rattus norvegicus [4] = assay: Volume of distribution in po dosed rat; format: ADME, organism-based; conditions: in vivo
Rattus norvegicus [5] = assay: Dose normalized AUC in po dosed rat; format: ADME, organism-based; conditions: in vivo
rat MDR1A = assay: Apparent permeability in pig LLC-PK1 expressing rat MDR1A; format: ADME, cell-based, Sus scrofa
[6] = Clearance in po dosed rat; format: ADME, organism-based; conditions: in vivo

solubility [1] [µM] | SMILES | further results
78 (≈ 24 µg/mL) | Cn1ncc2c(NCc3cccc(Cl)c3)nc(Cl)nc21 | 
44 (≈ 13.6 µg/mL) | Cn1ncc2c(NCc3ccccc3Cl)nc(Cl)nc21 | 
105 (≈ 37.1 µg/mL) | FC(F)(F)c1ccc(C2(Nc3nc(Cl)nc4[nH]ncc34)CC2)cc1 | bioavailability [2]: 146%; half-life [3]: 6.33 h; Vd (Rattus norvegicus [4]): 4.64 L/kg; AUC/dose (Rattus norvegicus [5]): 6.59 µM·kg·h/mg; Papp (rat MDR1A): 1.63 to 26.5 ×10⁻⁶ cm/s; CL/F [6]: 8.44 mL/min/kg
 | Cc1nc(NC2(c3ccc(C(F)(F)F)cc3)CC2)c2cnn(C)c2n1 | bioavailability [2]: 16.9%; half-life [3]: 1.34 h; Vd (Rattus norvegicus [4]): 3.78 L/kg; AUC/dose (Rattus norvegicus [5]): 0.24 µM·kg·h/mg; Papp (rat MDR1A): 0.82 to 26.7 ×10⁻⁶ cm/s; CL/F [6]: 44.4 mL/min/kg
176 (≈ 60.3 µg/mL) | Cn1ncc2c(NCc3ccc(C(F)(F)F)cn3)nc(Cl)nc21 | 
150 (≈ 53.4 µg/mL) | Cn1ncc2c(NCCc3ccc(C(F)(F)F)cc3)nc(Cl)nc21 | 
175 (≈ 61.1 µg/mL) | Cn1ncc2c(NC3(c4ccc(C(F)(F)F)cc4)CC3)nc(O)nc21 | 
206 (≈ 40.7 µg/mL) | CNc1nc(Cl)nc2c1cnn2C | 
145 (≈ 44.7 µg/mL) | Cn1ncc2c(NCc3ccc(Cl)cc3)nc(Cl)nc21 | 
139 (≈ 53.1 µg/mL) | Cn1ncc2c(N3CCCC3c3ccc(C(F)(F)F)cc3)nc(Cl)nc21 (configuration not stated) | 
125 (≈ 46.7 µg/mL) | Cn1ncc2c(NC3(c4ccc(C(F)(F)F)cc4)CC3)nc(C3CC3)nc21 | 
183 (≈ 67.7 µg/mL) | Cn1ncc2c(NC(C)(C)c3ccc(C(F)(F)F)cc3)nc(Cl)nc21 | 
164 (≈ 56 µg/mL) | Cn1ncc2c(NCc3ccc(C(F)(F)F)cc3)nc(Cl)nc21 | 
156 (≈ 57.4 µg/mL) | Cn1ncc2c(NC3(c4ccc(C(F)(F)F)cc4)CC3)nc(Cl)nc21 | 
138 (≈ 54.6 µg/mL) | Cn1ncc2c(N3CCCCC3c3ccc(C(F)(F)F)cc3)nc(Cl)nc21 (configuration not stated) | 
159 (≈ 56.6 µg/mL) | C[C@@H](Nc1nc(Cl)nc2c1cnn2C)c1ccc(C(F)(F)F)cc1 | 
